{
  "source": "patent US4680382A",
  "about": "“Analogues of actinomycin D” (priority 1986, dated 1987)",
  "key": {"calf-thymus DNA": {"tested_on": "calf-thymus DNA", "assay": "Equilibrium binding to calf-thymus DNA, Scatchard plots of binding isotherms (spectrophotometric)", "details": "Scatchard plot", "procedure": "(§1) The \"reverse\" analogues bind to calf-thymus DNA, but the spectrophotometrically determined binding (Kapp and Bapp, equilibrium binding values) constants are found to be lower than those of AMD. The binding is also measured by thermal denaturation of DNA.\n(§2) The equilibrium binding constants (Kapp and Bapp) of the \"reverse\" methyl 7a and the \"reverse\" phenyl 8a were determined from the Scatchard plots of binding isotherms; the Scatchard plots are produced according to the previously described methods using calf-thymus DNA [Sengupta et al, Biochem. Biophys. Acta 521, 89 (1978)]. The Kapp values are 2.5×10^6 and 2.3×10^6 M^-1, respectively; corresponding Bapp values are 0.038 and 0.036. […] But, these \"reverse\" analogues associate with DNA less strongly; their frequency of binding is also lower compared to that of AMD. However, the \"reverse\" analogues fail to cause any measurable change in the ratio of the intrinsic viscosity (γ) of DNA with the increasing ratios of [ligand]/DNA base pair (r), even when low molecular weight DNAs (0.5×10^5 to 1.0×10^5) were employed."}, "DNA": {"tested_on": "DNA", "assay": "Thermal denaturation of DNA (ΔTm)", "assay_type": "binding", "procedure": "as §1, §2\nMelting points are determined on a Thomas-Hoover melting point apparatus at a heating rate of 2° C./min. Thin-layer chromatography was performed on silica gel plates (Brinkmann Instrument Inc.). Solvent systems were (A) EtOAc-acetone (4:1), (B) CHCl3 -MeOH (9:1) and (C) Cifferri, the organic phase of the mixture EtOAc-MeOH-H2 O (20:1:20). High-performance liquid chromatography was carried out on a Varian Model 5020 gradient liquid chromatograph equipped with a CD-111L chromatography data system and fitted with a Varian reversed-phase C18 column with the following solvent systems: I, CH3 CN-5 mM NH4 OAc buffer, pH 6.4 (68:32 isocratic), flow rate 1.5 mL/min; II, 65-95% water-methanol gradient for 70 min, 1 mL/min; III, 10-90% H2 O-MeOH gradient for 120 min, 1 mL/min, with UV-visible variable- and fixed-wavelength dual detectors at 254, 440, 470 and 520 nm. IR spectra were obtained on a Perkin-Elmer Model 237 Infra Cord with KBr micropellets or in chloroform solutions. UV-visible spectra were obtained on a Gilford 250 spectrophorometer, which, with the addition of a base-line reference compensator (Analog Multiplexer 5053) and thermoprogrammer, auto four cell programmer and thermoelectric cell holder 2577, were used to obtain thermal denaturation curves. Specific rotation values were determined in chloroform solutions with a Cary 60 spectropolarimeter. NMR spectra were obtained in a JEOL FQ-90 MHz spectrometer equipped with Fourier transform. EPR spectra analyses were recorded in a Varian E-9 EPR spectrometer. All elemental analyses were within ±0.4%."}, "[1]": {"tested_on": "CCRF-CEM human lymphoblastic leukemic cells", "assay": "In vitro cytotoxicity against CCRF-CEM cells", "assay_type": "cell-based", "details": "48 hr", "procedure": "^a Human lymphoblastic leukemic cells.\nThe analogues were tested for their cytotoxicity against tumor cells (time, 48 hr). […] This may be associated with the initial microsomal transformation of the \"reverse\" analogues to \"symmetrical\" analogue and/or other alternate bioactive forms (e.g., free-radicals, O2^-), followed by deactivation via formation of conjugates and facile elimination of these from the host. The \"reverse\" analogues show reduced toxicity in vivo and also the tritiated \"reverse\" 7a is metabolized in vitro."}, "P388 cells [2]": {"tested_on": "P388 cells", "assay": "Inhibition of RNA synthesis (2-[14C]uridine incorporation) in P388 cells", "assay_type": "cell-based, murine", "procedure": "(§3) Experiments for inhibition of nucleic acid synthesis in tumor cells in vitro were carried out with P388 tumor cells, details of which were reported by Sengupta et al, J. Med. Chem., 18, 1175 (1975). […] AMD-OZLs inhibit either process with equal activity and with the potency of its metabolite 7-hydroxy-AMD.\n^b IC50 (RNA) = concentration of inhibitor in μM required to\ncause 50% reduction (in 1 hr) in 2[^14 C]uridine incorporation into\nacid precipitable material with use of P388 cells."}, "P388 cells [3]": {"tested_on": "P388 cells", "assay": "Inhibition of DNA synthesis (methyl-[3H]thymidine incorporation) in P388 cells", "assay_type": "cell-based, murine", "details": "50% reduction in 1 hr of methyl-[3H]thymidine incorporation, read-out: IC50 DNA synth", "procedure": "as §3\n^c IC50 (DNA) = concentration of inhibitor in μM required to\ncause 50% reduction (in 1 hr) in methyl[^3 H]thymidine incorporation\ninto acid precipitable material with use of P388 cells."}, "[4]": {"tested_on": "P388 lymphocytic leukemia", "assay": "In vivo antitumor activity against P388 leukemia", "set-up": "species or system BDF1 mice", "procedure": "The analogues were tested for their antitumor activities in P388 lymphocytic leukemia in male BDF1 mice. The tumor was implanted intraperitoneally (ip) with 10^6 cells. The drugs were also administered ip once daily on days 1, 5 and 9, beginning 1 day after tumor transplantation. Analogues were tested over a range of doses, but only the optimal nontoxic doses are listed.\n^a 10^6 P388 cells implanted ip on day 0 into groups of eight\nBDF1 male mice. Drugs administered ip. MST (range), median survival\ntime in days (range of individual animal deaths); % ILS, percent increase\nin life span, calculated 100(T/C - 1), where T and C are median survival\ntimes of treated and control animals; surv, number of surviving mice/tota"}, "B16 melanoma": {"tested_on": "B16 melanoma", "assay": "In vivo antitumor activity against B16 melanoma", "set-up": "species or system BDF1 mice", "procedure": "AMD-OZL analogues 9a and 10a were about as active as AMD and 7-hydroxy-AMD. The potencies of these analogues are reduced in comparison to that of AMD; their optimal doses were higher than that of AMD.\n^a 0.2 mL of 1:5 (weight/volume) brei of B16 melanoma implanted\nip on day 0 in groups of nine BDF1 mice. Drugs administered ip.\n^b MST (range) median survival time in days (range of individual\n^c % ILS (surv), percent increase in lifespan (survivors on day"}, "P388/S": {"tested_on": "P388/S", "assay": "In vivo activity against P388/S (adriamycin sensitive) leukemia, Table VII", "set-up": "species or system BDF1 mice", "procedure": "(§4) ^a Male BDF1 mice inoculated ip: 10^6 cells inoculum, day 0.\n(§5) Drugs administered in 10% dimethyl sulfoxidesaline on days 1, 5 and 9. %\n(§6) ILS = percent increase in life span. Fractions in parentheses = tumorfree\n(§7) survivors/total on day 60. P388/S (adriamycin sensitive) and P388/ADR\n(§8) (adriamycin resistant) tumors were evaluated in the same experiment with […]"}, "P388/ADR": {"tested_on": "P388/ADR", "assay": "In vivo activity against P388/adriamycin-resistant leukemia", "set-up": "species or system BDF1 mice", "procedure": "as §4, §5, §6, §7, §8"}, "[5]": {"assay": "Maximum tolerated dose (LD10) in tumor-free BDF1 male mice", "assay_type": "in vivo", "details": "lethal dose for 10% normal BDF1 male mice, 21 days (LD10); ip days 1, 5 and 9", "procedure": "(§9) These analogues were also tested in tumor-free BDF1 male mice for determination of their MTD values (Table VIII). The animals (18-22 g) were given a broad range of doses of drugs in 5% dimethyl sulfoxide-saline on days 1, 5 and 9. Drugs were administered ip and the maximum tolerated doses of agents which caused death in only 10% of the tested animals in 21 days (i.e., LD10) were recorded as MTD. […] However, the MED values of 7-hydroxy-AMD and its precursor AMD-OZL 10a are high and are seven to tenfold of the MED values of 4a and 8a. On the basis of these MED values, the therapeutic indices of 8a and 4a are 70 and 96. The therapeutic index of 2a is 13, of 10a 10, and of AMD only 4.\n^c MTD (maximum tolerated dose) is the lethal dose\n(milligram/kilogram) for 10% normal BDF1 male mice (18-22 g); animal\ncalculated from a plot of logdose vs. percent mortality."}, "P388 Leukemia": {"tested_on": "P388 Leukemia", "assay": "Minimum effective dose and therapeutic index vs. P388 leukemia", "assay_type": "in vivo", "details": "dose giving 45% increase in life span in P388 tumor bearing mice; ip days 1, 5 and 9", "procedure": "as §9\n^a Drugs administered ip once on days 1, 5 and 9 starting 1 day after\ntumor implantation. Determinations were made from analysis of plotted\n^b MED (minimum effective dose) is the dose (milligram/kilogram)\nproviding an increase in life span of 45% over control in P388 tumor"}},
  "data": [
    {"smiles": "Cc1c2oc3c(C)c4oc(-c5ccccc5)nc4c(C(=O)NC4C(=O)NC(C(C)C)C(=O)N5CCCC5C(=O)N(C)CC(=O)N(C)C(C(C)C)C(=O)OC4C)c3nc-2c(C(=O)NC2C(=O)NC(C(C)C)C(=O)N3CCCC3C(=O)N(C)CC(=O)N(C)C(C(C)C)C(=O)OC2C)c(N)c1=O", "note": "[8a, 7-Amino-9,11-dimethyl-2-phenyl-8H-8-oxooxazolo [4,5-b]phenoxazine 4,6-bis[carbonyl-L-threonyl-D-valyl-L-prolylsarcosyl-L-N-methylvaline(threonine hydroxyl)] lactone]", "values": [
      {"measurement": "Bapp (equilibrium binding value)", "setting": "calf-thymus DNA", "value": 0.036},
      {"measurement": "Kapp (equilibrium binding constant)", "setting": "calf-thymus DNA", "value": "2.3e+06", "unit": "M⁻¹"},
      {"measurement": "ΔTm (DNA melting temperature)", "setting": "DNA", "value": "6.7±0.2", "unit": "°C"},
      {"measurement": "in vitro (CCRF-CEM) ID50", "setting": "[1]", "value": 30, "unit": "nM"},
      {"measurement": "IC50", "setting": "P388 cells [2]; 50% reduction in 1 hr of 2-[14C]uridine incorporation, read-out: IC50 RNA synth", "value": 70, "unit": "nM"},
      {"measurement": "IC50 DNA/IC50 RNA", "setting": "P388 cells [2]; ratio", "value": 11.43},
      {"measurement": "IC50", "setting": "P388 cells [3]", "value": 800, "unit": "nM"},
      {"measurement": "surv (surviving mice/total mice at 60 days)", "setting": "[4]; P388, at optimal dose", "value": "4/8"},
      {"measurement": "% ILS", "setting": "[4]; P388, at optimal dose, 100(T/C - 1)", "value": 382, "unit": "%"},
      {"measurement": "MST (range)", "setting": "[4]; P388, at optimal dose, control 11.0 (9-12)", "value": "52.0 (49-58) days"},
      {"measurement": "optimal dose", "setting": "[4]; P388, ip, days 1, 5 and 9, optimal nontoxic dose", "value": 375.0, "unit": "μg/kg per inj"},
      {"measurement": "% ILS", "setting": "B16 melanoma; at optimal dose", "value": 103, "unit": "%"},
      {"measurement": "surv (survivors on day 65/total injected)", "setting": "B16 melanoma; at optimal dose", "value": "5/9"},
      {"measurement": "MST (range)", "setting": "B16 melanoma; at optimal dose, control 29 (20-48)", "value": "59 (53-59) days"},
      {"measurement": "optimal dose", "setting": "B16 melanoma; ip, days 1, 5, 9", "value": 300, "unit": "μg/kg per inj"},
      {"measurement": "P388/S % ILS", "setting": "P388/S; at optimal dose", "value": 382, "unit": "%"},
      {"measurement": "P388/S tumor-free survivors/total on day 60", "setting": "P388/S; at optimal dose", "value": "4/8"},
      {"measurement": "P388/S optimal dose", "setting": "P388/S; ip, days 1, 5 and 9", "value": 0.35, "unit": "mg/kg"},
      {"measurement": "P388/ADR % ILS", "setting": "P388/ADR; at optimal dose", "value": 132, "unit": "%"},
      {"measurement": "P388/ADR tumor-free survivors/total on day 60", "setting": "P388/ADR; at optimal dose", "value": "1/8"},
      {"measurement": "P388/ADR optimal dose", "setting": "P388/ADR; ip, days 1, 5 and 9", "value": 0.6, "unit": "mg/kg"},
      {"measurement": "MTD (maximum tolerated dose)", "setting": "[5]", "value": 1.80, "unit": "milligram/kilogram"},
      {"measurement": "MED (minimum effective dose)", "setting": "P388 Leukemia", "value": 0.03, "unit": "milligram/kilogram"}
    ]}
  ]
}
